Measurements reported in patent publication US6355799B1, “Substituted benzene compounds, process for their preparation, and herbicidal and defoliant compositions containing them” (ISK Americas Incorporated, priority 1997, dated 2002).

How the values were obtained:
Assay type in all cases: in vivo
[1] = test system: sicklepod (Cassia obtusifolia, CASOB); assay: Post-emerge test, greenhouse herbicide activity screening; details: post-emerge, phytotoxicity rating 0-100 at 14 days after application
In short: (§1)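 Visual ratings on a 0-100 scale (0 no damage, 100 all plants dead) were taken at 14 days after treatment. Rates of 15-1000 g ai/ha in acetone, 187 l/ha, were sprayed onto soil one day after planting (pre-emerge) or onto 2-3 leaf plants with 0.25% v/v surfactant (post-emerge).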

[2] = test system: barnyardgrass (Echinochloa crus-galli, ECHCG); assay: as above; details: post-emerge, phytotoxicity rating 0-100 at 14 days after application
In short: as §1

[3] = test system: large crabgrass (Digitaria sanguinalis, DIGSA); assay: as above; details: post-emerge, phytotoxicity rating 0-100 at 14 days after application
In short: as §1

[4] = test system: ivyleaf morningglory (Ipomoea hederacea, IPOHE); assay: as above; details: post-emerge, phytotoxicity rating 0-100 at 14 days after application
In short: as §1

[5] = test system: velvetleaf (Abutilon theophrasti, ABUTH); assay: as above; details: post-emerge, phytotoxicity rating 0-100 at 14 days after application
In short: as §1

[6] = test system: johnsongrass (Sorghum halepense, SORHA); assay: as above; details: post-emerge, phytotoxicity rating 0-100 at 14 days after application
In short: as §1

[7] = test system: redroot pigweed (Amaranthus retroflexus, AMARE); assay: as above; details: post-emerge, phytotoxicity rating 0-100 at 14 days after application
In short: as §1

[8] = test system: lambsquarters (Chenopodium album, CHEAL); assay: as above; details: post-emerge, phytotoxicity rating 0-100 at 14 days after application
In short: as §1

[9] = test system: green foxtail (Setaria viridis, SETVI); assay: as above; details: post-emerge, phytotoxicity rating 0-100 at 14 days after application
In short: as §1

[10] = test system: redroot pigweed (Amaranthus retroflexus, AMARE); assay: Pre-emerge test, greenhouse herbicide activity screening; details: pre-emerge, phytotoxicity rating 0-100 at 14 days after application
In short: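 Compounds in acetone were track-sprayed at 15-1000 g ai/ha (187 l/ha) on sandy loam pots: pre-emerge one day after seeding, post-emerge at 2-3 leaf stage with 0.25% v/v non-ionic surfactant. Phytotoxicity was rated 14 days later on a 0 (no damage) to 100 (complete death) scale.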

[11] = test system: upland rice (Oryza sp., var. Tebonnet, RICE); assay: Post-emerge test, crop safety; details: post-emerge, crop damage rating 0-100 at 14 days after application
In short: (§2)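 Sandy loam pots; pre-emerge: sown 1 d pre-spray, surface-watered after, then bottom-watered. Post-emerge: sown 8–21 d before, 2–3 leaf stage, + 0.25% v/v NIS, bottom-watered. Acetone, 187 l/ha track spray, 15–1000 g ai/ha. 0–100 injury score, day 14.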

[12] = test system: field corn (Zea mays L., var. Dekalb 535, CORN); assay: Post-emerge test, crop safety; details: post-emerge, crop damage rating 0-100 at 14 days after application
In short: as §2

[13] = test system: upland rice (Oryza sp., var. Tebonnet, RICE); assay: Pre-emerge test, crop safety; details: crop damage, pre-emerge, phytotoxicity rating 0-100 at 14 days after application
In short: (§3)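 Herbicidal damage is scored 0 (none) to 100 (complete plant death) two weeks after a simulated field spray. Rates span 15–1000 g ai/ha, delivered in acetone at 187 l/ha. For post-emergence treatments, plants have 2–3 leaves and the spray carries 0.25% v/v non-ionic surfactant.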

[14] = test system: field corn (Zea mays L., var. Dekalb 535, CORN); assay: Pre-emerge test, crop safety; details: crop damage, pre-emerge, phytotoxicity rating 0-100 at 14 days after application
In short: as §3

[15] = test system: sicklepod (Cassia obtusifolia, CASOB); assay: Pre-emerge test, greenhouse herbicide activity screening; details: pre-emerge, phytotoxicity rating 0-100 at 14 days after application
In short: as §2

[16] = test system: barnyardgrass (Echinochloa crus-galli, ECHCG); assay: as above; details: pre-emerge, phytotoxicity rating 0-100 at 14 days after application
In short: as §2

[17] = test system: large crabgrass (Digitaria sanguinalis, DIGSA); assay: as above; details: pre-emerge, phytotoxicity rating 0-100 at 14 days after application
In short: as §2

[18] = test system: ivyleaf morningglory (Ipomoea hederacea, IPOHE); assay: as above; details: pre-emerge, phytotoxicity rating 0-100 at 14 days after application
In short: as §2

[19] = test system: velvetleaf (Abutilon theophrasti, ABUTH); assay: as above; details: pre-emerge, phytotoxicity rating 0-100 at 14 days after application
In short: as §2

[20] = test system: lambsquarters (Chenopodium album, CHEAL); assay: as above; details: pre-emerge, phytotoxicity rating 0-100 at 14 days after application
In short: as §2

[21] = test system: green foxtail (Setaria viridis, SETVI); assay: as above; details: pre-emerge, phytotoxicity rating 0-100 at 14 days after application
In short: as §2

COc1c(Cl)cc(F)c(-n2nc(C)n(C(F)F)c2=O)c1NC(=O)c1ccc(F)cc1F [Compound 6-14]
100: Post-emerge Herbicidal Activity IPOHE ([4]; 63 g ai/ha) | Post-emerge Herbicidal Activity IPOHE ([4]; 250 g ai/ha) | Post-emerge Herbicidal Activity ABUTH ([5]; 63 g ai/ha) | Post-emerge Herbicidal Activity ABUTH ([5]; 250 g ai/ha) | Post-emerge Herbicidal Activity AMARE ([7]; 250 g ai/ha) | Post-emerge Herbicidal Activity CHEAL ([8]; 63 g ai/ha) | Post-emerge Herbicidal Activity CHEAL ([8]; 250 g ai/ha) | Post-emerge Herbicidal Activity SETVI ([9]; 250 g ai/ha) | Pre-emerge Herbicidal Activity AMARE ([10]; rate 250 g ai/ha) | Post-emerge Herbicidal Activity CORN ([12]; 250 g ai/ha) | Pre-emerge Herbicidal Activity RICE ([13]; rate 250 g ai/ha) | Pre-emerge Herbicidal Activity CORN ([14]; rate 250 g ai/ha) | Pre-emerge Herbicidal Activity ECHCG ([16]; rate 63 g ai/ha) | Pre-emerge Herbicidal Activity ECHCG ([16]; rate 250 g ai/ha) | Pre-emerge Herbicidal Activity DIGSA ([17]; rate 63 g ai/ha) | Pre-emerge Herbicidal Activity DIGSA ([17]; rate 250 g ai/ha) | Pre-emerge Herbicidal Activity IPOHE ([18]; rate 250 g ai/ha) | Pre-emerge Herbicidal Activity ABUTH ([19]; rate 63 g ai/ha) | Pre-emerge Herbicidal Activity ABUTH ([19]; rate 250 g ai/ha) | Pre-emerge Herbicidal Activity CHEAL ([20]; rate 63 g ai/ha) | Pre-emerge Herbicidal Activity CHEAL ([20]; rate 250 g ai/ha) | Pre-emerge Herbicidal Activity SETVI ([21]; rate 63 g ai/ha) | Pre-emerge Herbicidal Activity SETVI ([21]; rate 250 g ai/ha)
20: Post-emerge Herbicidal Activity ECHCG ([2]; 63 g ai/ha)
30: Post-emerge Herbicidal Activity SORHA ([6]; 63 g ai/ha)
90: Post-emerge Herbicidal Activity CASOB ([1]; 250 g ai/ha) | Post-emerge Herbicidal Activity ECHCG ([2]; 250 g ai/ha) | Post-emerge Herbicidal Activity DIGSA ([3]; 250 g ai/ha) | Post-emerge Herbicidal Activity SORHA ([6]; 250 g ai/ha) | Post-emerge Herbicidal Activity SETVI ([9]; 63 g ai/ha) | Pre-emerge Herbicidal Activity AMARE ([10]; rate 63 g ai/ha) | Post-emerge Herbicidal Activity RICE ([11]; 250 g ai/ha) | Pre-emerge Herbicidal Activity RICE ([13]; rate 63 g ai/ha) | Pre-emerge Herbicidal Activity CORN ([14]; rate 63 g ai/ha)
40: Pre-emerge Herbicidal Activity CASOB ([15]; rate 63 g ai/ha)
80: Post-emerge Herbicidal Activity AMARE ([7]; 63 g ai/ha)
60: Post-emerge Herbicidal Activity CASOB ([1]; 63 g ai/ha) | Post-emerge Herbicidal Activity DIGSA ([3]; 63 g ai/ha) | Post-emerge Herbicidal Activity RICE ([11]; 63 g ai/ha) | Post-emerge Herbicidal Activity CORN ([12]; 63 g ai/ha) | Pre-emerge Herbicidal Activity CASOB ([15]; rate 250 g ai/ha) | Pre-emerge Herbicidal Activity IPOHE ([18]; rate 63 g ai/ha)

Cc1nn(-c2c(F)cc(Cl)cc2NC(=O)c2ccc(F)cc2F)c(=O)n1C(F)F [Compound 6-23]
30: Post-emerge Herbicidal Activity IPOHE ([4]; 250 g ai/ha) | Post-emerge Herbicidal Activity SETVI ([9]; 250 g ai/ha) | Pre-emerge Herbicidal Activity CHEAL ([20]; rate 63 g ai/ha)
0: Post-emerge Herbicidal Activity CASOB ([1]; 63 g ai/ha) | Post-emerge Herbicidal Activity ECHCG ([2]; 63 g ai/ha) | Post-emerge Herbicidal Activity ECHCG ([2]; 250 g ai/ha) | Post-emerge Herbicidal Activity DIGSA ([3]; 63 g ai/ha) | Post-emerge Herbicidal Activity SORHA ([6]; 63 g ai/ha) | Post-emerge Herbicidal Activity SORHA ([6]; 250 g ai/ha) | Post-emerge Herbicidal Activity SETVI ([9]; 63 g ai/ha) | Post-emerge Herbicidal Activity RICE ([11]; 63 g ai/ha) | Post-emerge Herbicidal Activity CORN ([12]; 63 g ai/ha) | Pre-emerge Herbicidal Activity RICE ([13]; rate 63 g ai/ha) | Pre-emerge Herbicidal Activity RICE ([13]; rate 250 g ai/ha) | Pre-emerge Herbicidal Activity CORN ([14]; rate 63 g ai/ha) | Pre-emerge Herbicidal Activity CORN ([14]; rate 250 g ai/ha) | Pre-emerge Herbicidal Activity CASOB ([15]; rate 63 g ai/ha) | Pre-emerge Herbicidal Activity ECHCG ([16]; rate 63 g ai/ha) | Pre-emerge Herbicidal Activity ECHCG ([16]; rate 250 g ai/ha) | Pre-emerge Herbicidal Activity DIGSA ([17]; rate 63 g ai/ha) | Pre-emerge Herbicidal Activity IPOHE ([18]; rate 63 g ai/ha) | Pre-emerge Herbicidal Activity ABUTH ([19]; rate 63 g ai/ha) | Pre-emerge Herbicidal Activity SETVI ([21]; rate 63 g ai/ha)
40: Post-emerge Herbicidal Activity ABUTH ([5]; 63 g ai/ha)
10: Post-emerge Herbicidal Activity CASOB ([1]; 250 g ai/ha) | Post-emerge Herbicidal Activity DIGSA ([3]; 250 g ai/ha) | Post-emerge Herbicidal Activity IPOHE ([4]; 63 g ai/ha) | Pre-emerge Herbicidal Activity CASOB ([15]; rate 250 g ai/ha) | Pre-emerge Herbicidal Activity DIGSA ([17]; rate 250 g ai/ha)
85: Post-emerge Herbicidal Activity AMARE ([7]; 250 g ai/ha)
20: Post-emerge Herbicidal Activity AMARE ([7]; 63 g ai/ha) | Post-emerge Herbicidal Activity CHEAL ([8]; 63 g ai/ha) | Pre-emerge Herbicidal Activity IPOHE ([18]; rate 250 g ai/ha)
60: Pre-emerge Herbicidal Activity SETVI ([21]; rate 250 g ai/ha)
70: Post-emerge Herbicidal Activity CHEAL ([8]; 250 g ai/ha)
55: Post-emerge Herbicidal Activity ABUTH ([5]; 250 g ai/ha)
100: Pre-emerge Herbicidal Activity AMARE ([10]; rate 250 g ai/ha) | Pre-emerge Herbicidal Activity CHEAL ([20]; rate 250 g ai/ha)
50: Pre-emerge Herbicidal Activity AMARE ([10]; rate 63 g ai/ha) | Pre-emerge Herbicidal Activity ABUTH ([19]; rate 250 g ai/ha)
15: Post-emerge Herbicidal Activity RICE ([11]; 250 g ai/ha) | Post-emerge Herbicidal Activity CORN ([12]; 250 g ai/ha)
